One data set concerns Candida biofilms. The experiment in a line: AST, biofilm mode, all Candida strains. In kind it is cell-based. Particulars: all six strains. The protocol:
(§1) The in vitro susceptibility of well-characterized wild-type C. albicans strain SC5314, which was provided by Prof. N.A.R. Gow (University of Aberdeen, Aberdeen, UK) was tested against 1280 compounds from the Library of Pharmacologically Active Compounds (LOPAC^1280TM, Sigma–Aldrich, USA). The screen was performed with C. albicans SC5314, and hits were further confirmed with the type strains C. dubliniensis MYA 577, C. glabrata ATCC 2001, C. kusei ATCC 6258, C. palapsilosis ATCC 22019, and C. tropicalis ATCC13803.
(§2) To investigate the antifungal effects of the hit compounds, ASTs were conducted using broth microdilution assays with high cell densities of the planktonic mode, adhesion phase and biofilm mode against Candida strains (C. albicans, C. dubliniensis, C. glabrata, C. kusei, C. palapsilosis, and C. tropicalis). First, high density cell (1 × 10^7 cells/mL) suspensions were added to the RPMI medium containing each hit compound (10–1000 μM) in 96-well plates and incubated at 37°C for 24 h. Next, the 50% minimum inhibitory concentrations (MICs) of high-density Candida planktonic cultures were determined using the CellTiter-Glo luminescent cell viability kit, as described above. The antifungal effects of the hit compounds were also evaluated in the adhesion phase and the biofilm mode, in the same manner as the planktonic mode. Candida biofilms were produced as described previously ([Jin et al., 2004]). In brief, Candida cells were grown on SDA at 37°C for 18 h. A loopful of the yeast culture was then inoculated into yeast nitrogen base (YNB) (Difco, USA) medium supplemented with 50 mM glucose. After overnight broth culture in a rotary shaker at 75 rpm, the cells were washed twice with 20 mL of PBS (pH 7.2, 0.1 M). The yeast cells were re-suspended in YNB supplemented with 100 mM glucose and adjusted to an optical density of 0.38 (1 × 10^7 cells/mL) at 520 nm. This standardized cell suspension was used immediately to form biofilms in the wells of 96-well polystyrene culture plates (Iwaki, Tokyo, Japan). First, the cells were incubated for 90 min at 37°C in a shaker at 75 rpm to allow yeast adherence to the well surface (adhesion phase), before the medium was aspirated and each well was washed once with PBS to remove non-adherent cells. YNB containing 100 mM glucose was then pipetted into each well and the plate was incubated at 37°C in a shaker at 75 rpm for 24 h. Non-adherent cells were removed by pipetting and the biofilms were washed twice with PBS. Following this biofilm growth phase, microscopic examination of the cultures was performed to exclude contamination. These ASTs were repeated on three different occasions.

Another data set has as its system C. tropicalis ATCC13803. The data set is described as follows: AST, adhesion phase. In kind it is cell-based. Particulars: Candida tropicalis, ATCC13803, 1.5 h, read-out: Minimum inhibitory concentration (MIC). The procedure:
as §1, §2

The test system of data set [1] is C. albicans SC5314. The data set is described as follows: AST, adhesion phase. In kind it is cell-based. As to conditions: Candida albicans, SC5314, 1.5 h, read-out: Minimum inhibitory concentration (MIC). The procedure: as §1, §2
The next data set deals with C. glabrata ATCC 2001. The data set is described as follows: AST, adhesion phase. In kind it is cell-based. Particulars: Nakaseomyces glabratus, ATCC2001, 1.5 h, read-out: Minimum inhibitory concentration (MIC). The procedure:
as §1, §2

In data set [2] the test system is C. palapsilosis ATCC 22019. The data set is described as follows: AST, adhesion phase. It is filed as cell-based. Particulars: 1.5 h, read-out: Minimum inhibitory concentration (MIC). The procedure: as §1, §2
The test system of the next data set is C. kusei ATCC 6258. The experiment in a line: AST, adhesion phase. Particulars: 1.5 h, read-out: Minimum inhibitory concentration (MIC). In kind it is cell-based. The procedure: as §1, §2
The test system of another data set is C. dubliniensis MYA 577. The data set is described as follows: AST, adhesion phase. In kind it is cell-based. As to conditions: Candida dubliniensis, MYA577, 1.5 h, read-out: Minimum inhibitory concentration (MIC). The protocol: as §1, §2
For data set [3], the system named is C. kusei ATCC 6258 biofilm. The experiment in a line: AST, biofilm mode. It is filed as cell-based. Particulars: read-out: Minimum inhibitory concentration (MIC). The protocol:
as §1, §2

Data set [4] has as its system C. albicans SC5314. The data set is described as follows: AST broth microdilution, high cell density planktonic mode. It is filed as cell-based, Candida albicans. Particulars: Candida albicans, SC5314, 24 h, read-out: Minimum inhibitory concentration (MIC). The protocol:
as §1, §2
(In broth dilution the organism is exposed to a series of concentrations in liquid medium.)

The subject of data set [5] is human gingival fibroblast (hGF) cells. The data set is described as follows: Cytotoxicity, WST-1 cell counting assay. The protocol: Primary human gingival fibroblast (hGF) cultures were established from discarded healthy gingival tissues after surgery with the informed consent of the donors ([Nikawa et al., 2006]). In brief, the gingival tissue specimens were treated overnight with 0.025% trypsin and 0.02% EDTA at 4°C. After trypsin neutralization, the lamina propria mucosae were separated from the epithelial layer and minced into pieces in a plastic tissue culture dish, and then maintained in Dulbecco’s modified Eagle medium (Nacalai Tesque, Kyoto, Japan) supplemented with 10% FBS, 100 U/mL penicillin, […] and 250 ng/mL amphotericin B (Nacalai Tesque, Kyoto, Japan). After the fibroblasts had migrated out of the tissue, the tissues were removed and the cells were cultured until they reached confluence. The cells were then seeded onto 96-well tissue culture plates (500 cells per well) and the culture medium was exchanged with fresh growth medium containing the hit compounds (0.98–1000 μM). The cells were cultured continuously and the culture medium containing the hit compounds was renewed every other day. The number of cells was evaluated using the WST-1 cell counting assay (Dojindo Laboratories, Kumamoto, Japan), as described previously ([Hamada et al., 2007]). […] All the experiments were performed using three samples for each condition in triplicate.
To evaluate the safety for clinical use, we tested the cytotoxic effects of the hit compounds using human cell cultures. We used hGF cells because of their ubiquitous nature and their widespread use in cytotoxicity testing ([Egusa et al., 2009]; [LaFleur et al., 2011]). The hGF cells were grown in 96-well plates and exposed to increasing doses (two-fold increments) of each hit compound for 4 days. The hGF metabolic activity was measured every other day and used as an indicator of cell viability.
In general terms: Formazan colour is commonly taken as a measure of viable cells.

[6] abbreviates: adhesion phase (90 min adherence).
Setting [7] is: 50% MIC, planktonic mode, 1 × 10^7 cells/mL, 24 h.
[8] abbreviates: hGF cells, 4 days exposure, 50% reduction in cell number, WST-1.

From publication PMC4686731, “Screening of Pharmacologically Active Small Molecule Compounds Identifies Antifungal Agents Against Candida Biofilms” (Frontiers in Microbiology, 2015) come the findings set out here.

The structures appear in SMILES notation. In brackets after ≈: the same amount, converted by molar mass. Like-named read-outs stand apart in the source and are kept apart here.

Regarding `Cc1ccc(S(=O)(=O)/C=C/C#N)cc1` [Bay11-7082], the “concentration that inhibited the metabolic activity of Candida biofilms” value was “below 500 μM” in the data set on Candida biofilms (listed as BAY11-7082) and < 62.5 µM in the data set on Candida biofilms (listed as Bay 11-7082). Besides, the MIC worked out at 31.3 µM (≈ 6.49 µg/mL) in the data set on C. tropicalis ATCC13803 (setting [6]); 31.3 µM (≈ 6.49 µg/mL) in the data set with C. albicans SC5314 [1] (setting [6]); 31.3 µM (≈ 6.49 µg/mL) with C. glabrata ATCC 2001 (setting [6]); 15.6 µM (≈ 3.23 µg/mL) in data set [2] (setting [6]); 15.6 µM (≈ 3.23 µg/mL) in the data set with C. kusei ATCC 6258 (setting [6]); 15.6 µM (≈ 3.23 µg/mL) in the data set with C. dubliniensis MYA 577 (setting [6]). Further, the MIC in data set [3] (biofilm mode (24 h biofilm)) is 62.5 µM (≈ 13 µg/mL); with C. albicans SC5314 [4] (setting [7]) it was 7.8 µM (≈ 1.62 µg/mL). Moreover, in [5], the “cytotoxicity to hGF cells (in words)” value is on record as “cytotoxic to hGF cells at low concentrations”. The same compound gave a Cytotoxic concentration in [5] (human, 4 days) of 7.81 µM.
As to `CC(C)(C)c1ccc(S(=O)(=O)/C=C/C#N)cc1` [Bay11-7085], the “concentration that inhibited the metabolic activity of Candida biofilms” value in the data set on Candida biofilms (listed as BAY11-7085) is “below 500 μM”; with Candida biofilms (listed as Bay 11-7085) it was < 62.5 µM. For the same compound, the MIC turned out to be 31.3 µM (≈ 7.8 µg/mL) with C. tropicalis ATCC13803 (setting [6]); 31.3 µM (≈ 7.8 µg/mL) in the data set with C. albicans SC5314 [1] (setting [6]); 31.3 µM (≈ 7.8 µg/mL) in the data set on C. glabrata ATCC 2001 (setting [6]); 7.8 µM (≈ 1.94 µg/mL) in data set [2] (setting [6]); 15.6 µM (≈ 3.89 µg/mL) with C. kusei ATCC 6258 (setting [6]); 15.6 µM (≈ 3.89 µg/mL) in the data set with C. dubliniensis MYA 577 (setting [6]). The MIC in [3] (biofilm mode (24 h biofilm)) amounted to 62.5 µM (≈ 15.6 µg/mL); in the data set with C. albicans SC5314 [4] (setting [7]), 3.9 µM (≈ 0.972 µg/mL). The “cytotoxicity to hGF cells (in words)” value in [5] (hGF cells) is given as “cytotoxic to hGF cells at low concentrations”. Moreover, the Cytotoxic concentration in [5] (setting [8]) stood at 7.81 µM.
With `C[n+]1cc2c3c(ccc2c2ccc4cc5c(cc4c21)OCO5)OCO3` [Sanguinarine, Sanguinarine chloride hydrate], the “concentration that inhibited the metabolic activity of Candida biofilms” value was < 31.3 µM in the data set on Candida biofilms (listed as Sanguinarine chloride hydrate) and “below 500 μM” in the data set with Candida biofilms (listed as sanguinarine chloride hydrate). The MIC with C. tropicalis ATCC13803 came to 7.8 µM; in the data set on C. albicans SC5314 [1], 15.6 µM; in the data set on C. glabrata ATCC 2001 it was 15.6 µM; in data set [2] it was 7.8 µM; with C. kusei ATCC 6258, 7.8 µM; with C. dubliniensis MYA 577, 15.6 µM. The MIC was 31.3 µM in data set [3] (24 h) and < 1 µM in the data set on C. albicans SC5314 [4]. In addition, the “cytotoxicity to hGF cells (in words)” value in data set [5] (hGF cells) is “cytotoxic to hGF cells at low concentrations”. The same compound returned a Cytotoxic concentration in data set [5] (setting [8]) of 0.73 µM.
Consider `Cc1c2ccncc2c(C)c2c1[nH]c1ccccc12` [Ellipticine], for which, in the data set with Candida biofilms, the “concentration that inhibited the metabolic activity of Candida biofilms” value was < 500 µM. The MIC in the data set with C. tropicalis ATCC13803 (setting [6]) came to 250 µM (≈ 61.6 µg/mL); with C. albicans SC5314 [1] (setting [6]) it was 62.5 µM (≈ 15.4 µg/mL); in the data set with C. glabrata ATCC 2001 (setting [6]), 62.5 µM (≈ 15.4 µg/mL); in data set [2] (setting [6]), 125 µM (≈ 30.8 µg/mL); with C. kusei ATCC 6258 (setting [6]) it was 250 µM (≈ 61.6 µg/mL); in the data set on C. dubliniensis MYA 577 (setting [6]) it was 125 µM (≈ 30.8 µg/mL). For the same compound, the MIC stood at 250 µM (≈ 61.6 µg/mL) in data set [3] (biofilm mode (24 h biofilm)) and 7.8 µM (≈ 1.92 µg/mL) in the data set with C. albicans SC5314 [4] (setting [7]). Also, the “cytotoxicity to hGF cells (in words)” value in data set [5] (hGF cells) was “cytotoxic to hGF cells at low concentrations”. The Cytotoxic concentration in data set [5] (setting [8]) was 1.95 µM.
